# Reference: US20220387433A1, “TYPE V PHOSPHODIESTERASE INHIBITOR COMPOSITIONS, METHODS OF MAKING THEM AND METHODS OF USING THEM IN PREVENTING OR TREATING ELEVATED PULMONARY VASCULAR PRESSURE OR PULMONARY HEMORRHAGES” (American Regent, Inc., priority 2019, published 2022)
# Tested on: mature, healthy horses
# Assay: Twenty-four week (6-month) target animal safety (TAS) study
# Assay type: in vivo
# Experimental: A twenty-four week (6-month) target animal safety (TAS) study was conducted to evaluate the safety of E-4021 (EIPHISOL®) in mature, healthy horses. The study was designed with 4 treatment groups of eight horses (two geldings, two stallions and four mares) in each group. Treatment groups included a Control (Group I: Isotonic saline at a volume equivalent to the largest volume given in the 5× (Group IV); 1× (Group II: 0.125 mg E4021 per pound body weight); 3× (Group III: 0.375 mg E4021 per pound body weight; and 5× (Group IV: 0.625 mg E4021 per pound body weight). Treatment groups were dosed intravenously alternating between the left and right jugular vein once every 7 days for 25 doses.
# Breeds represented in this study included Thoroughbred, Quarter Horse, Paint, Arabian, and Grade. The overall age ranged from 3 to 17 years, with a mean of 7.6±4.49 years. The majority of the horses were Thoroughbred (59.4%).
# Physical Examinations and Post-Dose Observations: Post-dose observations were conducted after every treatment to detect any acute abnormalities at 10-, 30-, and 60-minute intervals. […] As all groups (including the controls) recorded this finding (Table I), it is presumed that a factor other than the test article was responsible.
# [1] = males in Group II (1×) and Group III (3×)
# [2] = males in Group III (3×) and Group IV (5×)
substance,measurement,setting,value
"sodium 1-[6-chloro-4-(3,4-methylenedioxybenzyl)-aminoquinazolin-2-yl]piperidine-4-carboxylate sesquihydrate [E-4021]","Visual findings ataxia/dragging toes or behavioral/sedation, counted once per horse per group","1X, PE Day 0",6
same,"Visual findings ataxia/dragging toes or behavioral/sedation, counted once per horse per group","1X, PE Day 28",4
same,"Visual findings ataxia/dragging toes or behavioral/sedation, counted once per horse per group","1X, PE Day 56",2
same,"Visual findings ataxia/dragging toes or behavioral/sedation, counted once per horse per group","1X, PE Day 84",1
same,"Visual findings ataxia/dragging toes or behavioral/sedation, counted once per horse per group","1X, PE Day 112",1
same,"Visual findings ataxia/dragging toes or behavioral/sedation, counted once per horse per group","1X, PE Day 140",1
same,"Visual findings ataxia/dragging toes or behavioral/sedation, counted once per horse per group","1X, PE Day 168",1
same,"Physical examination findings, treatment-related",1× and 3×,no major abnormal physical examination findings
same,"Visual findings ataxia/dragging toes or behavioral/sedation, counted once per horse per group","3X, PE Day 0",2
same,"Visual findings ataxia/dragging toes or behavioral/sedation, counted once per horse per group","3X, PE Day 28",0
same,"Visual findings ataxia/dragging toes or behavioral/sedation, counted once per horse per group","3X, PE Day 56",1
same,"Visual findings ataxia/dragging toes or behavioral/sedation, counted once per horse per group","3X, PE Day 84",0
same,"Visual findings ataxia/dragging toes or behavioral/sedation, counted once per horse per group","3X, PE Day 112",0
same,"Visual findings ataxia/dragging toes or behavioral/sedation, counted once per horse per group","3X, PE Day 140",1
same,"Visual findings ataxia/dragging toes or behavioral/sedation, counted once per horse per group","3X, PE Day 168",0
same,"Visual findings ataxia/dragging toes or behavioral/sedation, counted once per horse per group","5X, PE Day 0",6
same,"Visual findings ataxia/dragging toes or behavioral/sedation, counted once per horse per group","5X, PE Day 28",4
same,"Visual findings ataxia/dragging toes or behavioral/sedation, counted once per horse per group","5X, PE Day 56",3
same,"Visual findings ataxia/dragging toes or behavioral/sedation, counted once per horse per group","5X, PE Day 84",4
same,"Visual findings ataxia/dragging toes or behavioral/sedation, counted once per horse per group","5X, PE Day 112",2
same,"Visual findings ataxia/dragging toes or behavioral/sedation, counted once per horse per group","5X, PE Day 140",2
same,"Visual findings ataxia/dragging toes or behavioral/sedation, counted once per horse per group","5X, PE Day 168",2
same,Blood urea nitrogen (BUN) vs Group I (Control),Day 140 for Group II (1×) and Day 154 for Group III (3×),significantly higher
same,MCH vs Group I (Control),Group II (1×) and Group IV (5×),no significant differences
same,Direct bilirubin vs Group I (Control),"Group II (1×), overall",significantly lower
same,Erythrocytes vs Group I (Control),"Group II (1×), overall",significantly lower
same,Hematocrit vs Group I (Control),"Group II (1×), overall",significantly lower
same,Hemoglobin vs Group I (Control),"Group II (1×), overall",significantly lower
same,MCHC vs Group I (Control),"Group II (1×), Days 14, 70, and 154",significantly higher
same,"Leukocytes vs Group I (Control), group-by-time","Group II (1×), Days 14 and 154",significantly lower
same,Glucose vs Group I (Control),"Group II (1×), Days 28, 42, 56, 70, and 140",significantly lower
same,APTT vs Group I (Control),"Group II (1×), Days 56, 140, and 168",significantly higher
same,Fibrinogen vs Group I (Control),"Group III (3×), overall",significantly lower
same,MCHC vs Group I (Control),"Group III (3×), Day 0",significantly lower
same,MCH vs Group I (Control),"Group III (3×), Day 56",significantly higher
same,APTT vs Group I (Control),"Group III (3×), Days 28, 56, 98, 140, and 168",significantly higher
same,"Leukocytes vs Group I (Control), group-by-time","Group III (3×), Days 84, 98, 112, 140, and 168",significantly higher
same,"Leukocytes vs Group I (Control), group-by-time",Group IV (5×),no significant differences
same,APTT vs Group I (Control),"Group IV (5×), Day 84",significantly lower
same,Blood urea nitrogen (BUN) vs Group I (Control),"Group IV (5×), Days 28, 42, 84, and 112",significantly lower
same,Glucose vs Group I (Control),"Group IV (5×), Days 28, 84, 140, and 168",significantly lower
same,APTT vs Group I (Control),"Group IV (5×), Days 56, 70, and 126",significantly higher
same,MCHC vs Group I (Control),"Group IV (5×), Days 98, 112, and 154",significantly higher
same,Physical examination findings at and immediately after dosing,"Group IV (5×), also recorded in controls, not dose related, not considered treatment related","transient locomotion (ataxia/dragging toes), or neurodepressant type effects (behavioral/sedation)"
same,Microscopic findings at the injection site(s),"IV jugular once every 7 days for 25 doses, attributed to minor trauma of injection procedure","minimal fibrosis of the dermis or vein, and minimal degeneration and necrosis of the underlying skeletal muscle"
same,Urinalysis findings,all groups,did not appear to be any indication of abnormal urinalysis findings
same,Bone marrow smears,"control and test-article treated horses, no dose relationship or correlation with decreased platelet counts on Day 168",low incidence of decreased megakaryocytes
same,"Leukocytes vs Group I (Control), group-by-sex",female horses in Group III (3×) and Group IV (5×),significantly higher
same,Globulin vs Group I (Control),females in Group II (1×),significantly higher
same,Albumin vs Group I (Control),females in Group II (1×) and Group III (3×),significantly lower
same,Sorbitol dehydrogenase vs Group I (Control),females in Group II (1×) and Group IV (5×),significantly higher
same,Lymphocytes/leukocytes vs control,"females, all treatment groups",no significant differences
same,Magnesium vs control,"females, all treatment groups",no significant difference
same,Neutrophils/leukocytes vs control,"females, all treatment groups",no significant differences
same,Macroscopic findings limited to the injection site,in vivo,no macroscopic findings
same,"Microscopic findings: mandibular salivary glands, related to test article","males given 1× and 3×, limited number examined",no microscopic findings
same,Liver to brain weight ratio (%) compared to control males,"males given the 3× dose, p=0.033, small magnitude, no dose response",statistically higher
same,Mean liver to body weight ratio (%) compared to control males,"males given the 3× dose, p=0.064, small magnitude, no dose response",statistically higher
same,"Leukocytes vs Group I (Control), group-by-sex",males in Group II (1×),significantly lower
same,Albumin vs Group I (Control),[1],significantly higher
same,Sorbitol dehydrogenase vs Group I (Control),[1],significantly higher
same,Globulin vs Group I (Control),[2],significantly lower
same,Lymphocytes/leukocytes vs Group I (Control),[2],significantly higher
same,Magnesium vs Group I (Control),males in Group IV (5×),significantly lower
same,Neutrophils/leukocytes vs Group I (Control),males in Group IV (5×),significantly lower
same,"Testicular changes, relation to dose",most consistent with spontaneous background findings,did not show evidence of a dose response
same,Microscopic findings: testes,"often with mononuclear cell infiltration and/or Leydig cell pigment accumulation, not in the single control male",Minimal seminiferous tubule degeneration
same,Adverse event of abdominal colic,"one horse Group II (1×) Day 51, one horse Control Day 54",did not appear to be associated with test article administration
same,Macroscopic observations at the end of dosing,"previous trauma, infectious diseases, degenerative/aging changes or euthanasia artifact",attributed to spontaneous background alterations
same,Fecal analysis findings,"two horses in Group III (3×) at Day 83, other groups normal",abnormal intestinal mucosa
